Measurements as given in patent US20230183187A1, “QUINAZOLINE COMPOUNDS AS INHIBITORS OF PREMATURE TERMINATION CODONS” (CENTRE NATIONAL DE LA RECHERCHE SCIENTIFIQUE, priority 2020, published 2023).

How the values were obtained:
HeLa cells = experiment: IC50 in HeLa cells; assay type: cell-based; settings: Homo sapiens
nonsense mutation W1268X = experiment: pAC99 dual reporter readthrough in HeLa cells, W1268X; assay type: cell-based, human; settings: 24 hours
Method: (§1) Different compounds of the invention have been tested for their ability to induce readthrough on the nonsense mutation W1268X or R213X in HeLa cells.
(§2) To this aim the inventors used the pAC99 dual reporter plasmid. This dual reporter is used to quantify stop-codon readthrough through the measurement of luciferase and beta-galactosidase (internal normalisation) activities. Readthrough levels for nonsense mutations were analysed in the presence or absence of tested molecules. Cells are seeded in a 6-well plate. The next day, cells are transfected with the reporter plasmid using the JetPei reagent (Invitrogen). The following day, they are rinsed with fresh medium, with or without readthrough inducers. Cells were harvested 24 hours later, with trypsin—EDTA (Invitrogen), lysed with Glo lysis buffer (Promega) and beta-galactosidase and luciferase activities were assayed as previously described. Readthrough efficiency was estimated by calculating the ratio of luciferase activity to beta-galactosidase activity obtained with the test construct, with normalisation against an in-frame control construct. At least five independent transfection experiments were performed for each assay.

nonsense mutation R213X = experiment: pAC99 dual reporter readthrough in HeLa cells, R213X; assay type: cell-based, human; settings: 24 hours
Method: as §1, §2

[1] = tested on: p53 (endogenous nonsense mutation R213X) in HDQ-P1 cells; experiment: Western blot of full-length p53 in HDQ-P1 cells; assay type: cell-based, human; settings: HDQ-P1, 48 h; for production of the full-length p53 (western blot): TLN68 50 μM, TLN236 30 μM, TLN309 40 μM
Method: HDQ-P1 cells (R213X) were treated with G418 ([…]), or the selected molecules (TLN68 50 μM, TLN1399 50 μM, TLN236 30 μM and TLN309 40 μM), for 48 h. Cells were harvested by treatment with trypsin—EDTA (Invitrogen), lysed in 350 mM NaCl, 50 mM Tris—HCl pH 7.5, 1% NP-40, and protease inhibitor cocktail (Roche) and disrupted by passage through a syringe.
Total proteins were quantified with Bradford reagent (Biorad) and extracts were denatured by incubation in Laemmli buffer for 5 minutes at 90° C. The inventors subjected 30 μg of total protein from HDQ-1 cells to SDS—PAGE in 4/10% Bis—Tris gels. Proteins were transferred onto nitrocellulose membranes, according to the manufacturer's instructions (Biorad). Membranes were saturated by overnight incubation in 5% skimmed milk powder in PBS, and incubated for 1 hour with the primary monoclonal antibody, DO-1 (N-terminal epitope mapping between amino acid residues 11 and 25 of p53; Santa Cruz Biotechnologies, 1/400) or a monoclonal antibody against mouse actin (Millipore, 1/2000). After three washes in PBS supplemented with 0.1% Tween, the membranes were incubated with the secondary antibody [horseradish peroxidase-conjugated anti-mouse IgG ( 1/2500)] for 45 minutes. The membranes were washed five times and chemiluminescence was detected with ECL Prime Western Blotting Detection Reagents (Amersham, GE Healthcare). The signal was quantified with ImageJ software.

TP53-R213X mRNA = experiment: RT-qPCR of mutant p53 mRNA in HDQ-P1 cells; assay type: cell-based, human; settings: HDQ-P1, 48 hours; TLN68 80 μM, TLN309 40 μM; n=3
Method: For the analysis of mRNA levels for p53 and its transcriptional target genes, Bax, the inventors extracted total RNA from HDQ-P1 cells that had or had not been treated with G418 (400 μM) or TLN68 (80 μM) for 48 hours (RNeasy Mini Kit, Qiagen). The RNA was treated with DNAse I (RNase-free DNase) and quantified with a Nanodrop spectrometer (ThermoScientific). The absence of RNA degradation was confirmed by agarose gel electrophoresis. The first-strand cDNA was synthesized from 2 μg of total RNA, with random primers and the SuperScript II Reverse Transcriptase (Invitrogen), as recommended by the manufacturer. Quantitative PCR was then carried out on equal amounts of the various cDNAs, with a CFX96 thermocycler (Biorad), and the accumulation of products was monitored with the intercalating dye FastStart Universal SYBRGreen Master (ROX) reagent (Roche). The inventors quantified mRNA levels relative to three reference mRNAs: RPL32, Hprt1 and HMBS. In each experiment, results are expressed relative to those for untreated cells, for which the value obtained was set to 1. Relative levels of gene expression were calculated at early stages of PCR, when the amplification was exponential and might, therefore, be correlated with the initial number of copies of the transcript. […] For the quantification of each mRNA, three independent experiments (from biological replicates) were performed in triplicate. […]

[2] = tested on: TP53 R213X nonsense mutation; experiment: Dual reporter (lacZ/F-luc, pAC99) stop codon readthrough quantification, R213X, NIH3T3 cells; assay type: cell-based, mouse; settings: 24 h, each drug separately or together
Source text: Complementary oligonucleotides corresponding to TP53 R213X nonsense mutations and 9 nucleotides on both sides are ligated into the pAC99 dual reporter plasmid, as previously described (Premature stop codons involved in muscular dystrophies show a broad spectrum of readthrough efficiencies in response to gentamicin treatment, Bidou et al, Gene Therapy 1 Apr. 2004, 11(7):619-627). This dual reporter is used to quantify stop-codon readthrough through the measurement of luciferase and beta-galactosidase (internal calibration) activities, as previously described (Stahl et al, Versatile vectors to study recoding: conservation of rules between yeast and mammalian cells. Nucleic Acids Res 1995; 23:1557-60). Readthrough levels for nonsense mutations were analysed in the presence or absence of tested molecules. Cells were seeded in a 6-well plate. The next day, cells are transfected with the reporter plasmid in the presence of JetPei reagent (Invitrogen). The following day, they are rinsed with fresh medium, with or without readthrough inducers. […] Readthrough efficiency was estimated by calculating the ratio of luciferase activity to beta-galactosidase activity obtained with the test construct, with normalisation against an in-frame control construct. […]

[3] = tested on: TP53 nonsense mutation R213X; experiment: Secreted Metridia luciferase R213X reporter in stable NIH3T3 cell line (HTS); assay type: cell-based, mouse; settings: gentamicin 1.6 mM 24 hours, 7 clones, library molecules 50 μM
Method: All cells were cultured in DMEM plus GlutaMAX (Invitrogen), except for H1299 cells, which were cultured in RPMI plus GlutaMAX (Invitrogen). The medium was supplemented with 10% foetal calf serum (FCS, Invitrogen) and 100 U/ml penicillin/streptomycin. Cells were kept in a humidified atmosphere containing 5.5% CO2, at 37° C. NIH3T3 cells are embryonic mouse fibroblasts. H1299 is a p53-null cell line established from a human lung carcinoma (provided by the ATCC). HDQ-P1 is homozygous for a nonsense mutation at codon 213 (CGA to TGA) in the p53 gene. This cell line was established from a human primary breast carcinoma and was provided by DSMZ-German collection of microorganisms and cell cultures. In order to generate a stable mammalian cell line the inventors used a secreted Metridia luciferase reporter gene derived from pMetLuc2 (Clonetech). […] Seven neomycin resistant clones were tested for their capacity to express active metridiae after readthrough induction in the presence of 1.6 mM gentamicin during 24 hours. Then 50 μL of culture medium was taken from each well and incubated in the presence of substrate: coelenterazine, according to the conditions recommended by the supplier (Ready-To-Glow Secreted Luciferase Reporter Assay (Clonetech)). The photon emission generated by the reaction was measured in a plate luminometer (Tecan). […]

dystrophin = settings: skeletal muscle of mdx mice, subcutaneous injections (Barton-Davis et al, 1999); cited from earlier work

Compound	IC50 (HeLa cells)	Inducting factor of readthrough as compared to untreated cells (measured on nonsense mutation W1268X) (nonsense mutation W1268X)	Inducting factor of readthrough as compared to untreated cells (measured on nonsense mutation R213X) (nonsense mutation R213X)	also measured
Cc1nc(NC(=N)N)nc2c(C)c(Cl)ccc12 [EC-335, 1-(7-chloro-4,8-dimethylquinazolin-2-yl)guanidine]	10 µM	33	38	–
Cc1nc(NC(=N)N)nc2cc(F)ccc12 [EC-11]	40 µM	11	–	–
COc1cc(C(=O)OCCCN2CCCN(CCCOC(=O)c3cc(OC)c(OC)c(OC)c3)CC2)cc(OC)c1OC.Cl.Cl [TLN236]	–	–	–	production of the full-length p53 (western blot) [1]: no protein is revealed
COc1cccc2c(C)nc(NC(=N)N)nc12 [EC-30]	80 µM	10	–	–
CCc1nc(NC(=N)N)nc2cc(OC)ccc12 [EC-265]	60 µM	19	40	–
CCN(CC)Cc1cc(Nc2ccnc3cc(Cl)ccc23)ccc1O [TLN309, Amodiaquine]	–	–	–	stabilisation of TP53-R213X mRNA relative to untreated (TP53-R213X mRNA): marginal stabilisation; level of induction of full-length p53 compared with G418 ([1]; G418 10 and 20 mM): even higher to the one obtained in presence of G418; production of the full-length p53 (western blot) [1]: stimulate the production of the full-length p53
COc1ccc2c(C)nc(NC(=N)N)nc2c1 [EC-18, 1-(7-methoxy-4-methylquinazolin-2-yl)guanidine]	60 µM	69	50	–
Cc1nc(NC(=N)N)nc2cc(Cl)ccc12 [EC-141]	40 µM	16	–	–
gentamicin	–	–	–	readthrough level [2]: 10%; induction of Metridia luciferase activity [3]: significant induction; restoration of dystrophin levels relative to wild-type animals (dystrophin): 10-20%
Cc1nc(NC(=N)N)nc2c(C)c(Br)ccc12 [EC-130, 1-(7-bromo-4,8-dimethylquinazolin-2-yl)guanidine]	10 µM	21	33	–
Cc1nc(NC(=N)N)nc2cc(Br)ccc12 [EC-85]	20 µM	15	16	–
Cc1nc(NC(=N)N)nc2c(C)cccc12 [EC-35, 1-(4,8-dimethylquinazolin-2-yl)guanidine]	20 µM	11	14	–
Cc1nc(NC(=N)N)nc2c(C)c(F)ccc12 [EC-288, 1-(7-fluoro-4,8-dimethylquinazolin-2-yl)guanidine]	20 µM	68	55	–
